Laboratory results from patent publication US20260217767A1, “NOVEL A4B7 THIOETHER PEPTIDE DIMER ANTAGONISTS” (Protagonist Therapeutics, Inc., priority 2014, published 2026).
Read-outs that look alike come from different tables or passages of the source. *1 amine or outer side, *2 acyl side, *3 side chain or, on linkers, in order; H or OH if unused. Where a SMILES comes first, the peptide text is derived from it. Bridges are numbered along the chain shown (N, C = ends). Roman numbers before positions name the chains, in order. [ ]: non-standard residue; d: D form. Phe(4-CF3) = N[C@@H](Cc1ccc(C(F)(F)F)cc1)C(=O)O; 1Nal = N[C@@H](Cc1cccc2ccccc12)C(=O)O; Diglycolyl = O=C(COCC(=O)[*:2])[*:1]; NMeR = CN[C@@H](CCCNC(=N)N)C(=O)O; X1 = O=C(c1ccccc1C[*:2])[*:1]; Pen = CC(C)(S)[C@H](N)C(=O)O; hCys = N[C@@H](CCS)C(=O)O

Key:
α4β1 = molecular target: T1, α4β1 (Homo sapiens, UniProt P05556+P13612); experiment: α4β1-VCAM Competition ELISA; format: binding; conditions: read-out: ELISA A4B1
T1 construct: purchased R&D Systems 5668-A4
Method: α4β1-VCAM Competition ELISA
A Nunc MaxiSorp plate was coated with rh VCAM-1/CD106 Fc chimera (R&D #862-VC) at 400 ng/well in 50 ul per well in 1×PBS and incubated overnight at 4° C. The solution was removed by shaking and then blocked with 250 ul of 1% BSA in 1×PBS per well. The wells were then incubated at room temperature for 1 hr with shaking. Each well was then washed once with wash buffer (50 mM Tris-HCl pH7.6, 100 mM NaCL, 1 mM MnCl2 or MgCl2, 0.05% Tween-20). 25 ul of serial dilutions of peptides starting at 200 μM in assay buffer (Assay buffer: 50 mM Tris-HCl pH7.6, 100 mM NaCl, 1 mM MnCl2 or MgCl2, 0.05% Tween-20) was added to each well. Additionally, 25 μl of α4β1 (R&D Systems #5668-A4) was added to each well at a fixed concentration of 120 nM. The final peptide and α4β1 concentrations were 100 μM and 60 nM, respectively. The plates were then incubated at 37° C. for 2 hr. The solution was then removed by shaking and each well was washed three times with wash buffer. 50 ul of 9F10 antibody at 4 ug/ml (purified mouse anti-human CD49d, BD Bioscience Cat #555502) was then added to each well, and the plate was incubated at room temperature for Ihr with shaking. The solution was again removed by shaking, and each well was washed three times with wash buffer. 50 μl of peroxidase-conjugated AffiniPure Goat anti-mouse IgG (Jackson immune research cat #115-035-003) diluted in 1:5000 in assay buffer was added to each well. The plate was incubated at room temperature for 30 min with shaking. Each well was then washed 3 times with wash buffer. 100 ul of TMB was then added to each well and closely observe during developing time. The reaction was stepped with 2N H2SO4 and absorbance was read at 450 nm.

Jurkat E6.1 cells = Jurkat E6.1 cells (Homo sapiens, UniProt P05556+P13612); experiment: α4β1-VCAM Cell Adhesion Assay; format: cell-based; conditions: thioether peptide dimers, Table 7; read-out: Cell Adhesion A4B1
Method: α4β1-VCAM Cell Adhesion Assay
Jurkat E6.1 cells (Sigma #88042803) were cultured in RPMI 1640 HEPES medium (Invitrogen #22400-089) supplemented with 10% serum (Fetal Bovine Serum, Invitrogen #16140-071), 1 mM sodium pyruvate (Invitrogen #11360-070), 2 mM L-glutamine (Invitrogen #25030-081) and Penicillin-Streptomycin (Invitrogen #15140-122) at 100 units of penicillin and 100 μg of streptomycin per ml. The cells were washed two times in DMEM medium (ATCC #30-2002) supplemented with 0.1% BSA, 10 mM HEPES pH 7 and 1 mM MnCl2. The cells were re-suspended in supplemented DMEM medium at a density of 4×10^6 cells/ml.
A Nunc MaxiSorp plate was coated with rh VCAM-1/CD106 Fc chimera (R&D #862-VC) at 400 ng per well in 50 μl per well in 1×PBS and incubated at 4° C. overnight. The solution was then removed by shaking, blocked with 250 μl per well PBS containing 1% BSA, and incubated at 37° C. for 1 hr. The solution was removed by shaking. Peptides were diluted by serial dilution in a final volume of 50 μl per well (2× concentration). To each well, 50 μl of cells (200,000 cells) were added and the plate was incubated at 37° C., 5% CO2 for 30-45 min to allow cell adhesion. The wells were washed manually three times (100 μl per wash) with supplemented DMEM. After the final wash, 100 μl/well of supplemented DMEM and 10 ul/well of MTT reagent (ATTC cat #30-1010K) were added. The plate was incubated at 37° C., 5% CO2 for 2-3 hrs until a purple precipitate is visible. 100 ul of Detergent Reagent (ATTC cat #30-1010K) is added to each well. The plate was covered from the light, wrapped in Parafilm to prevent evaporation, and left overnight at room temperature in the dark. The plate was shaken for 5 min and the absorbance at 570 nm is measured. To calculate the dose response, the absorbance value of control wells not containing cells was subtracted from each test well.

[1] = thioether peptide dimers, Table 7
[2] = thioether monomer peptides, Table 6

T1 sequence (P13612 34-977 limits assumed): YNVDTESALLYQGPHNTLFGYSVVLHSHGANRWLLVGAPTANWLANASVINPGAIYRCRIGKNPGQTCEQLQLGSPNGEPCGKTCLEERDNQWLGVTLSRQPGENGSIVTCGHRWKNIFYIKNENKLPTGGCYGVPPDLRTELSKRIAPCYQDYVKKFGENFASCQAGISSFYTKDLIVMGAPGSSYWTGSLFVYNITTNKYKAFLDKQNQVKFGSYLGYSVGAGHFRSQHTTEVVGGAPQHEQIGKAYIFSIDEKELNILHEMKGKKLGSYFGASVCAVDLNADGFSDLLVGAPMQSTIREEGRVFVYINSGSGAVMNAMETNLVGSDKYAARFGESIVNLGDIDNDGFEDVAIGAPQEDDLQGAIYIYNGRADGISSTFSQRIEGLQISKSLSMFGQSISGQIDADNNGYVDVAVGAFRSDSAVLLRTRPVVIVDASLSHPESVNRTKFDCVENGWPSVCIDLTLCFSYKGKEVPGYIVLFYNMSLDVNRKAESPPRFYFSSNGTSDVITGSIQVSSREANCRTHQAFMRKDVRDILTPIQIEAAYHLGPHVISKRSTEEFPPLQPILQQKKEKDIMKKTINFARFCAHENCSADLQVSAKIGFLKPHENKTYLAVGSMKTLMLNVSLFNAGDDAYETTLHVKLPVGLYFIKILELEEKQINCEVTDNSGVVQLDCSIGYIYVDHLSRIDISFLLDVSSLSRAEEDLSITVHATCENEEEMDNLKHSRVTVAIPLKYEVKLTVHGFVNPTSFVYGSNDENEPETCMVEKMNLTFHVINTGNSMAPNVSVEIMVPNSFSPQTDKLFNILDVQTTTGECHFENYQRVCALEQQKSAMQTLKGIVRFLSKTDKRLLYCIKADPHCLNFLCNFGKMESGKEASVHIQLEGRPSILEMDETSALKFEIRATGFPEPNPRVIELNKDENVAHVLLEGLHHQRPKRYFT
T1 sequence (P05556 21-728 limits assumed): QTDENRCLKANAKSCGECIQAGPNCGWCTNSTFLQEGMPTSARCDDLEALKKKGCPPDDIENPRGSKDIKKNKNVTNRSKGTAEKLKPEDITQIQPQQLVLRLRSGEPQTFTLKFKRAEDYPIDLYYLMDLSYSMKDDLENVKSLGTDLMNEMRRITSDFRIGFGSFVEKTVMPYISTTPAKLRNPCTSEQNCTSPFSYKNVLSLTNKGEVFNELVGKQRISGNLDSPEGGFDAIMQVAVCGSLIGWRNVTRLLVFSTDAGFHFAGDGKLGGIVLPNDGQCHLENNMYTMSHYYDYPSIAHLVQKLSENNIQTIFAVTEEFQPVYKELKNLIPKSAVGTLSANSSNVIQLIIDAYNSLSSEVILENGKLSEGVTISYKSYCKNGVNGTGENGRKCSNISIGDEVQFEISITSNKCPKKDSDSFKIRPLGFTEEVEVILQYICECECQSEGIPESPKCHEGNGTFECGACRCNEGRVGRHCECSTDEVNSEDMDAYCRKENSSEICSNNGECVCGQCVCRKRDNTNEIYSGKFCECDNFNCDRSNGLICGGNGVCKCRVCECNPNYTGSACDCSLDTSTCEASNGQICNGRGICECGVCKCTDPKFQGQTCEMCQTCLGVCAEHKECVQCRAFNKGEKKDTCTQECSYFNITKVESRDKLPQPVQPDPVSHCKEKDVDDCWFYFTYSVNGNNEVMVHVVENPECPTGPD
Jurkat E6.1 cells, sequence (P13612 34-1032): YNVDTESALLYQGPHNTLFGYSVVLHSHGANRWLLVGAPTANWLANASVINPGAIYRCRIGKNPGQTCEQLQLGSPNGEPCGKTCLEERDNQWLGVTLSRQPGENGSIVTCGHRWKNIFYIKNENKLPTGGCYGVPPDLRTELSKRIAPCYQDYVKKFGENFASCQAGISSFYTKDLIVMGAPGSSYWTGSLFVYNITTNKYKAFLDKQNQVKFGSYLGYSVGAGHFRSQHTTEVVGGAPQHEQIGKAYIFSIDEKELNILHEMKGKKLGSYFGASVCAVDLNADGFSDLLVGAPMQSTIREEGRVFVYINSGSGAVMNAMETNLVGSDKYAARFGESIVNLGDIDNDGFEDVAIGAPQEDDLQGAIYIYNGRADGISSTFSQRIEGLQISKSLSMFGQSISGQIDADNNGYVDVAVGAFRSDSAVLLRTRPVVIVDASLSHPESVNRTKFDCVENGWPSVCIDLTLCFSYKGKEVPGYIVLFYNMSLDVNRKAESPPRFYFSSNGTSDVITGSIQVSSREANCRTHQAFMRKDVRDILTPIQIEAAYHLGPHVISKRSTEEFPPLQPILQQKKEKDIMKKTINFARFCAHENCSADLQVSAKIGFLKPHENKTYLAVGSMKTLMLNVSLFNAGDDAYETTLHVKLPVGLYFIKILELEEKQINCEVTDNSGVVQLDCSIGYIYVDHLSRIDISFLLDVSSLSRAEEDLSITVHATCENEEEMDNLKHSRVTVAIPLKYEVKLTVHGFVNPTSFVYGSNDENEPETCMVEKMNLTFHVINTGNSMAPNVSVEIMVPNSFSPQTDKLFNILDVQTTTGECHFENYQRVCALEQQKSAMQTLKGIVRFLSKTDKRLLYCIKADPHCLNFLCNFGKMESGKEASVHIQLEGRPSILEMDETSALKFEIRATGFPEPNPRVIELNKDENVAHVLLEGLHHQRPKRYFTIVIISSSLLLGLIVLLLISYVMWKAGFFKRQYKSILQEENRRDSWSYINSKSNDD
Jurkat E6.1 cells, sequence (P05556 21-798): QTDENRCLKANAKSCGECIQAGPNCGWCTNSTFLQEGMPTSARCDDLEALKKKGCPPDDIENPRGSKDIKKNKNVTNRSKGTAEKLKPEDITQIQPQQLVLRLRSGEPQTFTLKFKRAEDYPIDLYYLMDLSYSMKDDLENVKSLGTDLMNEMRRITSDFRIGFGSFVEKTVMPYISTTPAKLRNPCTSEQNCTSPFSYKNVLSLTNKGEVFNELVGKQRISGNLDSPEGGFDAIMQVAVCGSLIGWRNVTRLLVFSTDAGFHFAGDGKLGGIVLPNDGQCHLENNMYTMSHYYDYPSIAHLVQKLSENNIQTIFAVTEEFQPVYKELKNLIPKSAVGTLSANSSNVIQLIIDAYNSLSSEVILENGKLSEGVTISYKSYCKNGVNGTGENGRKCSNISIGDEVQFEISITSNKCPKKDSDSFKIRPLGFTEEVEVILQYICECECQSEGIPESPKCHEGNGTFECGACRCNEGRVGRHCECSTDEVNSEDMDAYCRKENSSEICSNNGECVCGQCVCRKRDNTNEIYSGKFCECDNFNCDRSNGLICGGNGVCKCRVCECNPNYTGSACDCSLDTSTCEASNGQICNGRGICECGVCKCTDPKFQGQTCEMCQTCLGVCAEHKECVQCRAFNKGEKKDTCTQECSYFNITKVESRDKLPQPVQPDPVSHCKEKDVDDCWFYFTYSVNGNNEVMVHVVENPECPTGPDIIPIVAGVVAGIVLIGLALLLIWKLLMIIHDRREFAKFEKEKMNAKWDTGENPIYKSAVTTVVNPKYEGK

Structure (SMILES)	IC50 (α4β1; [1])	IC50 (α4β1; [2])	IC50 (Jurkat E6.1 cells)
CC(C)C[C@@H]1NC(=O)[C@H]([C@@H](C)O)NC(=O)[C@H](CC(=O)O)NC(=O)[C@H](CO)NC(=O)[C@H](CCCNC(=N)N)N(C)C(=O)CSC[C@@H](C(=O)N[C@@H](Cc2c[nH]c3ccccc23)C(=O)N[C@H](CCCCNC(=O)COCC(=O)NCCCC[C@@H](NC(=O)[C@H](Cc2c[nH]c3ccccc23)NC(=O)[C@@H]2CSCC(=O)N(C)[C@@H](CCCNC(=N)N)C(=O)N[C@@H](CO)C(=O)N[C@@H](CC(=O)O)C(=O)N[C@@H]([C@@H](C)O)C(=O)N[C@@H](CC(C)C)C(=O)N2)C(N)=O)C(N)=O)NC1=O [compound 143]	> 1 µM	–	–
CC(C)C[C@@H]1NC(=O)[C@H]([C@@H](C)O)NC(=O)[C@H](CC(=O)O)NC(=O)[C@H](CO)NC(=O)[C@H](CCCNC(=N)N)N(C)C(=O)c2ccccc2CSC(C)(C)[C@@H](C(=O)N[C@@H](Cc2ccc3ccccc3c2)C(=O)N[C@H](CCC(=O)O)C(N)=O)NC1=O [compound 114] (HELM PEPTIDE1{[meR].S.D.T.L.[Pen].[O=C([C@H](Cc1ccc2ccccc2c1)N[*:1])[*:2]].[dE].[am]}|CHEM1{[O=C(c1ccccc1C[*:2])[*:1]]}$PEPTIDE1,CHEM1,1:R1-1:R1|PEPTIDE1,CHEM1,6:R3-1:R2$$$V2.0)	–	0.025 to 0.1 µM	–
CC(C)C[C@@H]1NC(=O)[C@H]([C@@H](C)O)NC(=O)[C@H](CC(=O)O)NC(=O)[C@H](CO)NC(=O)[C@H](CCCNC(=N)N)N(C)C(=O)c2ccccc2CSC(C)(C)[C@@H](C(=O)N[C@@H](Cc2cccc3ccccc23)C(=O)N[C@H](CCC(=O)O)C(=O)N[C@H](CCCCNC(=O)COCC(=O)NCCCC[C@@H](NC(=O)[C@@H](CCC(=O)O)NC(=O)[C@H](Cc2cccc3ccccc23)NC(=O)[C@H]2NC(=O)[C@H](CC(C)C)NC(=O)[C@H]([C@@H](C)O)NC(=O)[C@H](CC(=O)O)NC(=O)[C@H](CO)NC(=O)[C@H](CCCNC(=N)N)N(C)C(=O)c3ccccc3CSC2(C)C)C(N)=O)C(N)=O)NC1=O [compound 158] (I: [NMeR]SDTL[Pen][1Nal][dE][dK]-NH2 / II: [NMeR]SDTL[Pen][1Nal][dE][dK]-NH2; linker I:9-II:9 via Diglycolyl; linker I:N-I:6, II:N-II:6 via X1)	0.1 to 1 µM	–	> 100 µM
CC(C)C[C@@H]1NC(=O)[C@H]([C@@H](C)O)NC(=O)[C@H](CC(=O)O)NC(=O)[C@H](CO)NC(=O)[C@H](CCCNC(=N)N)N(C)C(=O)c2ccccc2CSC(C)(C)[C@@H](C(=O)N[C@@H](Cc2cccc3ccccc23)C(=O)N[C@@H](CCC(=O)O)C(=O)N[C@H](CCCCNC(=O)COCC(=O)NCCCC[C@@H](NC(=O)[C@H](CCC(=O)O)NC(=O)[C@H](Cc2cccc3ccccc23)NC(=O)[C@H]2NC(=O)[C@H](CC(C)C)NC(=O)[C@H]([C@@H](C)O)NC(=O)[C@H](CC(=O)O)NC(=O)[C@H](CO)NC(=O)[C@H](CCCNC(=N)N)N(C)C(=O)c3ccccc3CSC2(C)C)C(N)=O)C(N)=O)NC1=O [compound 167] (I: [NMeR]SDTL[Pen][1Nal]E[dK]-NH2 / II: [NMeR]SDTL[Pen][1Nal]E[dK]-NH2; linker I:9-II:9 via Diglycolyl; linker I:N-I:6, II:N-II:6 via X1)	0.025 to 0.1 µM	–	> 100 µM
CC(C)C[C@@H]1NC(=O)[C@H]([C@@H](C)O)NC(=O)[C@H](CC(=O)O)NC(=O)[C@H](CO)NC(=O)[C@H](CCCNC(=N)N)N(C)C(=O)c2ccccc2CSC[C@@H](C(=O)N[C@@H](Cc2c[nH]c3ccccc23)C(=O)N[C@@H](CCC(=O)O)C(=O)N[C@H](CCCCN)C(N)=O)NC1=O [compound 55] (HELM PEPTIDE1{[meR].S.D.T.L.C.W.E.[dK].[am]}|CHEM1{[O=C(c1ccccc1C[*:2])[*:1]]}$PEPTIDE1,CHEM1,1:R1-1:R1|PEPTIDE1,CHEM1,6:R3-1:R2$$$V2.0)	–	0.1 to 1 µM	–
CC(C)C[C@@H]1NC(=O)[C@H]([C@@H](C)O)NC(=O)[C@H](CC(=O)O)NC(=O)[C@H](CO)NC(=O)[C@H](CCCNC(=N)N)N(C)C(=O)c2ccccc2CSCC[C@@H](C(=O)N[C@@H](Cc2c[nH]c3ccccc23)C(=O)N[C@@H](CCC(=O)O)C(=O)N[C@H](CCCCNC(=O)COCC(=O)NCCCC[C@@H](NC(=O)[C@H](CCC(=O)O)NC(=O)[C@H](Cc2c[nH]c3ccccc23)NC(=O)[C@@H]2CCSCc3ccccc3C(=O)N(C)[C@@H](CCCNC(=N)N)C(=O)N[C@@H](CO)C(=O)N[C@@H](CC(=O)O)C(=O)N[C@@H]([C@@H](C)O)C(=O)N[C@@H](CC(C)C)C(=O)N2)C(N)=O)C(N)=O)NC1=O [compound 157] (I: [NMeR]SDTL[hCys]WE[dK]-NH2 / II: [NMeR]SDTL[hCys]WE[dK]-NH2; linker I:9-II:9 via Diglycolyl; linker I:N-I:6, II:N-II:6 via X1)	0.1 to 1 µM	–	–
CC(C)C[C@@H]1NC(=O)[C@H]([C@@H](C)O)NC(=O)[C@H](CC(=O)O)NC(=O)[C@H](CO)NC(=O)[C@H](CCCNC(=N)N)N(C)C(=O)c2ccccc2CSC(C)(C)[C@@H](C(=O)N[C@@H](Cc2ccc(C(F)(F)F)cc2)C(=O)N[C@@H](CCC(=O)O)C(=O)N[C@H](CCCCNC(=O)COCC(=O)NCCCC[C@@H](NC(=O)[C@H](CCC(=O)O)NC(=O)[C@H](Cc2ccc(C(F)(F)F)cc2)NC(=O)[C@H]2NC(=O)[C@H](CC(C)C)NC(=O)[C@H]([C@@H](C)O)NC(=O)[C@H](CC(=O)O)NC(=O)[C@H](CO)NC(=O)[C@H](CCCNC(=N)N)N(C)C(=O)c3ccccc3CSC2(C)C)C(N)=O)C(N)=O)NC1=O [compound 166] (I: [NMeR]SDTL[Pen][Phe(4-CF3)]E[dK]-NH2 / II: [NMeR]SDTL[Pen][Phe(4-CF3)]E[dK]-NH2; linker I:9-II:9 via Diglycolyl; linker I:N-I:6, II:N-II:6 via X1)	0.025 to 0.1 µM	–	–
CC(=O)NCCCC[C@@H](NC(=O)[C@@H](CCC(=O)O)NC(=O)[C@H](Cc1c[nH]c2ccccc12)NC(=O)[C@H]1NC(=O)[C@H](CC(C)C)NC(=O)[C@H]([C@@H](C)O)NC(=O)[C@H](CC(=O)O)NC(=O)[C@H](CO)NC(=O)[C@H](CCCNC(=N)N)N(C)C(=O)c2ccccc2CSC1(C)C)C(N)=O [compound 81] (HELM PEPTIDE1{[meR].S.D.T.L.[Pen].W.[dE].[dK].[am]}|PEPTIDE2{[ac]}|CHEM1{[O=C(c1ccccc1C[*:2])[*:1]]}$PEPTIDE1,PEPTIDE2,9:R3-1:R2|PEPTIDE1,CHEM1,1:R1-1:R1|PEPTIDE1,CHEM1,6:R3-1:R2$$$V2.0)	–	0.1 to 1 µM	–
CC(C)C[C@@H]1NC(=O)[C@H]([C@@H](C)O)NC(=O)[C@H](CC(=O)O)NC(=O)[C@H](CO)NC(=O)[C@H](CCCNC(=N)N)N(C)C(=O)C(C)SC[C@@H](C(=O)N[C@@H](Cc2c[nH]c3ccccc23)C(=O)N[C@H](CCCCN)C(N)=O)NC1=O (single isomer, unassigned) [compound 144]	> 1 µM	–	–
